The values that follow come from patent US3966896A, “Radioimmunoassay for plasma renin activity” (Mallinckrodt, Inc., priority 1974, dated 1976).

Several values for one entry are separate records, joined by “and”; a condition that tells them apart may be missing. Identical values can stand only once.

Assay [1] deals with antibody for angiotensin I. Kind of assay: Radioimmunoassay standard reactions: competitive binding of labeled and unlabeled angiotensin I to antibody. On the set-up: species or system rabbit. The procedure:
Antiserum (Rabbit) 1.4 μl
A series of standard prereaction mixtures was prepared by transferring 0.1 ml aliquots of standard unlabeled angiotensin I solutions from the standard vials to a series of reaction vials. Standard prereaction mixtures were prepared using the standard solutions containing 6, 3, 2, 1, 0.8, 0.6, and 0.3 ng/ml unlabeled angiotensin I, respectively. Two blank prereaction mixtures were prepared by adding 0.1 ml pH 9.0 buffer to a reaction vial.
Reaction mixtures were prepared and radioimmunoassay commenced by adding antiserum solution (0.1 ml) to each of the base unknown, generated unknown, standard, and blank prereaction mixtures. Antiserum was withheld from one reaction vial used as a control. The reaction mixtures contained in each vial were then mixed gently on a vortex and incubated for 1 hour at 37°C. After incubation was completed, each reaction vial was taken out of the water bath, the cap removed and an anion exchange resin strip immersed in the contents of the vial. The vial was then recapped and placed on a rotator for 30 minutes at room temperature (21°-23°C.). At the end of 30 minutes, the resin strip was removed from each vial and placed in an empty vial. Radioactivity of both the strip containing the unbound ("free") angiotensin I and the supernatant liquid containing the antibody bound ("bound") angiotensin I was counted, and the percentage bound angiotensin I was determined from the following relationship: [formula]
From the data of Tables I and II, a graph was prepared in which the percent bound angiotensin I was plotted against nanograms of unlabeled standard angiotensin I contained in the standard reaction solutions for the two sets of standard reactions. FIG. 1 is that graph. […]
Standard radioimmunoassay reactions were carried out using duplicate blanks and standard solutions respectively containing 0.03, 0.06, 0.08, 0.1, 0.2, 0.3 and 0.6 ng. unlabeled angiotensin I per ml. A control was also run in which no antiserum was added to the prereaction mixture. The procedure of Example 2 was followed, except that the temperature and period of incubation of the radioimmunoassay reaction were varied. The following combinations of time and temperature were utilized for these standard radioimmunoassay reactions: […]

A further assay relates to angiotensinogen. Kind of assay: Plasma renin activity, as angiotensin I generation rate. The format is biochemical, human. On the procedure:
Blood was drawn from patient three into a tube coated with EDTA and the plasma separated by centrifugation and cooled to 4°C. To one ml. of the cold plasma were added portions of 8-hydroxyquinoline inhibiting solution (10 μl) and dimercaprol inhibiting solution (10 μl). The resulting unknown plasma sample was transferred to a generation vial containing generation buffer solution and mixed.
The generation vial was placed in a water bath controlled at 37°C. and generation was carried out for 3 hours. At the end of this time, the generated unknown sample was removed from the water bath, cooled in an ice bath, and three 100 μl aliquots thereof transferred to three reaction vials to provide three generated unknown radioimmunoassay prereaction mixtures containing generated plasma, human serum albumin, sodium azide preservative, HCl, and ^125 I labeled angiotensin I.
The renin activity of patient three's plasma was indicated by the angiotensin I generation rate determined from the following relationship: [formula] The factor of 30 is used because the plasma is initially diluted three-fold, and only 0.1 ml of the dilute plasma is used in the radioimmunoassay, while the angiotensin I generation rate is based on 1 ml.
Another sample of patient three's plasma was assayed in the manner described in Example 2, except that 2,2-dimethyl glutaric acid was used in place of potassium acid phthalate as the buffering component of the generation mixture. Results of radioactivity counting on the base and generated radioimmunoassay reaction mixtures obtained in the assay of this example are set forth in Table IV.
Following the procedure described in Example 2, a renin activity radioimmunoassay was conducted on the plasma of patient two. The results of radioactive counting and the percent bound antigen for the duplicate standard radioimmunoassay reaction mixture are set forth in Tables V and VI.
Another sample of patient two's plasma was assayed in the manner described in Example 4, except that 2,2-dimethylglutaric acid was used in place of potassium acid phthalate as a buffering component of the generation mixture. Results of radioactive counting on the base and generated radioimmunoassay mixtures obtained in the assay of this example are set forth in Table VIII.
A renin activity radioimmunoassay was conducted on the plasma of patient one. The procedure described in Example 2 was followed except that only one set of reactions was carried out in establishing the standard curve. Results of radioactive counting and the percent bound antigen for the standard radioimmunoassay reaction mixtures are set forth in Table IX.
Another sample of patient one's plasma was assayed in the manner described in Example 6, except that 2,2-dimethylglutaric acid was used in place of potassium acid phthalate as the buffering component of the generation mixture. Results of radioactivity counting on the base and generated radioimmunoassay reaction mixtures, together with the angiotensin I content of the ungenerated and generated samples, are set forth in Table XI.

Take “Angiotensin I: decapeptide formed from angiotensinogen by renin; unlabeled standard in the radioimmunoassay (DRVYIHPFHL; Angiotensin-1; UniProt P01019 25-34, looked up)”: the “% Bound labeled angiotensin I” value in assay [1] (0.03 ng unlabeled angiotensin I standard, 12°C, 1 hour) was 38.3%; in assay [1] (0.03 ng unlabeled angiotensin I standard, 12°C, 5 hours), 60.8%; in assay [1] (0.03 ng unlabeled angiotensin I standard, 20°C, 1 hour), 46.52%; in assay [1] (0.03 ng unlabeled angiotensin I standard, 20°C, 5 hours), 64.22%; in assay [1] (0.03 ng unlabeled angiotensin I standard, 37°C, 1 hour) it was 56.33% and 55.20% and 54.06% and 54.27% and 56.75% and 54.34%; in assay [1] (0.06 ng unlabeled angiotensin I standard, 12°C, 1 hour) it was 36.6%. The “% Bound labeled angiotensin I” value was 52.9% in assay [1] (0.06 ng unlabeled angiotensin I standard, 12°C, 5 hours); 43.88% in assay [1] (0.06 ng unlabeled angiotensin I standard, 20°C, 1 hour); 62.08% in assay [1] (0.06 ng unlabeled angiotensin I standard, 20°C, 5 hours); 50.77% and 53.62% and 49.30% and 49.16% and 52.76% and 49.86% in assay [1] (0.06 ng unlabeled angiotensin I standard, 37°C, 1 hour); 34.7% in assay [1] (0.08 ng unlabeled angiotensin I standard, 12°C, 1 hour); 50.4% in assay [1] (0.08 ng unlabeled angiotensin I standard, 12°C, 5 hours). The “% Bound labeled angiotensin I” value in assay [1] (0.08 ng unlabeled angiotensin I standard, 20°C, 1 hour) is 37.90%; in assay [1] (0.08 ng unlabeled angiotensin I standard, 20°C, 5 hours), 53.73%; in assay [1] (0.08 ng unlabeled angiotensin I standard, 37°C, 1 hour), 49.01% and 48.63% and 48.16% and 48.27% and 48.93% and 45.64%; in assay [1] (0.1 ng unlabeled angiotensin I standard, 12°C, 1 hour), 34.3%; in assay [1] (0.1 ng unlabeled angiotensin I standard, 12°C, 5 hours) it was 47.5%; in assay [1] (0.1 ng unlabeled angiotensin I standard, 20°C, 1 hour), 40.23%. For the same molecule, the “% Bound labeled angiotensin I” value in assay [1] (0.1 ng unlabeled angiotensin I standard, 20°C, 5 hours) is 50.27%; in assay [1] (0.1 ng unlabeled angiotensin I standard, 37°C, 1 hour) it was 45.93% and 45.19% and 45.21% and 43.12% and 46.72% and 42.96%; in assay [1] (0.2 ng unlabeled angiotensin I standard, 12°C, 1 hour), 27.2%; in assay [1] (0.2 ng unlabeled angiotensin I standard, 12°C, 5 hours), 34.1%; in assay [1] (0.2 ng unlabeled angiotensin I standard, 20°C, 1 hour), 31.21%; in assay [1] (0.2 ng unlabeled angiotensin I standard, 20°C, 5 hours) it was 32.23%. The “% Bound labeled angiotensin I” value in assay [1] (0.2 ng unlabeled angiotensin I standard, 37°C, 1 hour) is 35.75% and 35.05% and 29.50% and 28.39% and 34.97% and 30.79%; in assay [1] (0.3 ng unlabeled angiotensin I standard, 12°C, 1 hour), 25.8%; in assay [1] (0.3 ng unlabeled angiotensin I standard, 12°C, 5 hours), 24.4%; in assay [1] (0.3 ng unlabeled angiotensin I standard, 20°C, 1 hour) it was 23.71%; in assay [1] (0.3 ng unlabeled angiotensin I standard, 20°C, 5 hours), 25.25%; in assay [1] (0.3 ng unlabeled angiotensin I standard, 37°C, 1 hour), 29.47% and 31.32% and 28.06% and 26.30% and 27.55% and 27.52%. Further, the “% Bound labeled angiotensin I” value in assay [1] (0.6 ng unlabeled angiotensin I standard, 12°C, 1 hour) is 15.9%; in assay [1] (0.6 ng unlabeled angiotensin I standard, 12°C, 5 hours), 16.6%; in assay [1] (0.6 ng unlabeled angiotensin I standard, 20°C, 1 hour), 15.54%; in assay [1] (0.6 ng unlabeled angiotensin I standard, 20°C, 5 hours), 15.0%; in assay [1] (0.6 ng unlabeled angiotensin I standard, 37°C, 1 hour), 17.21% and 16.50% and 17.98% and 17.40% and 17.61% and 16.72%.

B1: Renin: proteolytic enzyme secreted by juxtaglomerular cells in the kidney (protein, UniProt P00797 67-406, looked up)
Renin: LTLGNTTSSVILTNYMDTQYYGEIGIGTPPQTFKVVFDTGSSNVWVPSSKCSRLYTACVYHKLFDASDSSSYKHNGTELTLRYSTGTVSGFLSQDIITVGGITVTQMFGEVTEMPALPFMLAEFDGVVGMGFIEQAIGRVTPIFDNIISQGVLKEDVFSFYYNRDSENSQSLGGQIVLGGSDPQHYEGNFHYINLIKTGVWQIQMKGVSVGSSTLLCEDGCLALVDTGASYISGSTSSIEKLMEALGAKKRLFDYVVKCNEGPTLPDISFHLGGKEYTLTSADYVFQESYSSKKLCTLAIHAMDIPPPTGPTWALGATFIRKFYTEFDRRNNRIGFALAR
In the case of B1, the Renin activity in the assay with angiotensinogen (patient one plasma, glutarate generation buffer) was 1.31 ng/mL/h; in the assay on angiotensinogen (patient one plasma, phthalate generation buffer) it was 0.849 ng/mL/h; in the assay with angiotensinogen (patient three plasma, glutarate generation buffer), 0.7 ng angiotensin I/ml/hr; with angiotensinogen (patient three plasma, phthalate generation buffer) it was 0.42 ng/mL/h; in the assay with angiotensinogen (patient two plasma, glutarate generation buffer) it was 2.91 ng/mL/h; in the assay with angiotensinogen (patient two plasma, phthalate generation buffer) it was 1.41 ng Angiotensin I/ml/hr.
